# Measurements reported in US20130102595A1 (Curis, Inc., priority 2011, published 2013).
# Legend:
# [1] = test system: HDACs (HeLa cell nuclear extracts); assay: HDAC enzymatic activity, Biomol Color de Lys system; format: biochemical; conditions: 1 hour, 25° C.
# Method in brief: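 HeLa nuclear extract incubated with serially diluted compound and […] artificial substrate in 50 mM Tris/Cl pH 8.0, 137 mM NaCl, 2.7 mM KCl, 1 mM MgCl2. Run 1 h at 25 °C, stopped with developer. Fluorescence read (ex 350-380, em 440-460 nm); IC50 from sigmoidal dose-response fit.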
# PI3Kα (p110α/p85α) = target: T1, PI3Kα (p110α/p85α) (Homo sapiens, UniProt P42336); assay: PI3Kα ADP-Glo assay; format: biochemical; conditions: 20 μM PIP2, 10 μM ATP, 30 minutes
# T1 construct: GST (N); made in house; host or cells: Baculovirus-infected Sf9 cells
# T1 sequence (P42336 whole entry): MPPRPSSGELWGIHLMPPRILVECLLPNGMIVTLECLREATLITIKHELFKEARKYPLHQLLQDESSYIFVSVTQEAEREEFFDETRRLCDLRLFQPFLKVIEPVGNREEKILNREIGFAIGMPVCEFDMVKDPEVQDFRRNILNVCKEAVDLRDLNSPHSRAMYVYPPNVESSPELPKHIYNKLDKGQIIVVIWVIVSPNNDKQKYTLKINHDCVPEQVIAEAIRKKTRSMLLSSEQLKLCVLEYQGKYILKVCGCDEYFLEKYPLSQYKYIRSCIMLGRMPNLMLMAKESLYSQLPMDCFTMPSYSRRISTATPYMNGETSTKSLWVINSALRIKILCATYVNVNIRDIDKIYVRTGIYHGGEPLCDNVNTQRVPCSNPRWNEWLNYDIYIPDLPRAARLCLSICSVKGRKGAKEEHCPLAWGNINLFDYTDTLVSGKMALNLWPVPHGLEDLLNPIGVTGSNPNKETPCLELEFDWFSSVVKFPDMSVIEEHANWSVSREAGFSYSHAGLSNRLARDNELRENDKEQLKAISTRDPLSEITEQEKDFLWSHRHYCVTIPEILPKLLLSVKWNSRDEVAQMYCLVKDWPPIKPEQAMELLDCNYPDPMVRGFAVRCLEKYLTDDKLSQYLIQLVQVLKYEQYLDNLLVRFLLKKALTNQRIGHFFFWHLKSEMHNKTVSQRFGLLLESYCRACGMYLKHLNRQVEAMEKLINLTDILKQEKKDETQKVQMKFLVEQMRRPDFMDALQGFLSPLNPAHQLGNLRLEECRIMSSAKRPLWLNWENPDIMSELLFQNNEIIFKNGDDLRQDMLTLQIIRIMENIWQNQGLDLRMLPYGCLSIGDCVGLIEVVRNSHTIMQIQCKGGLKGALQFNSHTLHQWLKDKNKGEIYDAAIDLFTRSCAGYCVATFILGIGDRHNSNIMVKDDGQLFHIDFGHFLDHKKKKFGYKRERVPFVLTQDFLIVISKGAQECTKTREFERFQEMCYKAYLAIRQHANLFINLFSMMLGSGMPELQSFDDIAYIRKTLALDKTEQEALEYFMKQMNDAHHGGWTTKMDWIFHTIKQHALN
# T1 sequence (P27986 whole entry partner): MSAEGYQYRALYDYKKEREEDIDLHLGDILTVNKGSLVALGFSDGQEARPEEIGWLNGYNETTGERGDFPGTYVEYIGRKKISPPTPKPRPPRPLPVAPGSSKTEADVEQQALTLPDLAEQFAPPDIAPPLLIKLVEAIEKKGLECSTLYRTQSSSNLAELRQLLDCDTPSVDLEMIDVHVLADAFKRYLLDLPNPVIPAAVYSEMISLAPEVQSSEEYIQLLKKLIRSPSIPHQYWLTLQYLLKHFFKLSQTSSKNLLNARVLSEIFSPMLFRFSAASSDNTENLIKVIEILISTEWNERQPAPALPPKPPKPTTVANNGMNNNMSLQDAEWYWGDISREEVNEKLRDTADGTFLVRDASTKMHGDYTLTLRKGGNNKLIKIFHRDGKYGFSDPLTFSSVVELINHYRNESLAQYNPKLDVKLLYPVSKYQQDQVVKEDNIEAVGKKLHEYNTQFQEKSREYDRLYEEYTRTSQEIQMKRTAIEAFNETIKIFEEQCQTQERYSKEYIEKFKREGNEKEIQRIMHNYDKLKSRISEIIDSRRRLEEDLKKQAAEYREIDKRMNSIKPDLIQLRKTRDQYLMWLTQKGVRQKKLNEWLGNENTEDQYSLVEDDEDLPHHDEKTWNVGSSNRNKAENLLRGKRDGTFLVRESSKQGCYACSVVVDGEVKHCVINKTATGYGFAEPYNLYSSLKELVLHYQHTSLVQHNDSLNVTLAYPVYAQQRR
# Method in brief: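 Recombinant full-length human GST-p110α/His-p85α, co-expressed in Sf9 cells, was incubated 30 min at room temperature with 20 μM PIP2 and 10 μM ATP. The buffer was 50 mM HEPES pH 7.4, 150 mM NaCl, 5 mM MgCl2, 1 mM DTT, 3 µM orthovanadate and 0.5% DMSO. ADP formed was detected by ADP-Glo luminescence.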
smiles,measurement,setting,value
"CC(=O)Nc1cccc(-c2nc(N3CCOCC3)c3sc(CN(C)c4ncc(C(=O)NO)cn4)cc3n2)c1 [Compound 107, 2-(((2-(3-acetamidophenyl)-4-morpholinothieno[3,2-d]pyrimidin-6-yl)methyl)(methyl)amino)-N-hydroxypyrimidine-5-carboxamide]",IC50,[1],< 100 nM
same,IC50,PI3Kα (p110α/p85α),1000 to 10000 nM
same,melting point,,183 to 185 °C
"CN(C)c1cccc(-c2nc(N3CCOCC3)c3sc(CN(C)c4ncc(C(=O)NO)cn4)cc3n2)c1 [Compound 108, 2-(((2-(3-(dimethylamino)phenyl)-4-morpholinothieno[3,2-d]pyrimidin-6-yl)methyl)(methyl)amino)-N-hydroxypyrimidine-5-carboxamide]",IC50,[1],< 100 nM
same,IC50,PI3Kα (p110α/p85α),1000 to 10000 nM
same,melting point,,172 to 175 °C
"CN(C)c1ccc(-c2nc(N3CCOCC3)c3sc(CN(C)c4ncc(C(=O)NO)cn4)cc3n2)cn1 [Compound 114, 2-(((2-(6-(dimethylamino)pyridin-3-yl)-4-morpholinothieno[3,2-d]pyrimidin-6-yl)methyl)(methyl)amino)-N-hydroxypyrimidine-5-carboxamide]",IC50,[1],< 100 nM
same,IC50,PI3Kα (p110α/p85α),100 to 1000 nM
same,melting point,,190 to 195 °C
"CN(Cc1cc2nc(-c3cncnc3)nc(N3CCOCC3)c2s1)c1ncc(C(=O)NO)cn1 [Compound 119, N-hydroxy-2-(methyl((4-morpholino-2-(pyrimidin-5-yl)thieno[3,2-d]pyrimidin-6-yl)methyl)amino)pyrimidine-5-carboxamide]",IC50,[1],< 100 nM
same,IC50,PI3Kα (p110α/p85α),< 100 nM
same,melting point,,159 to 160 °C
"CN(Cc1cc2nc(-c3cnc(CN)nc3)nc(N3CCOCC3)c2s1)c1ncc(C(=O)NO)cn1 [Compound 124, 2-(((2-(2-(aminomethyl)pyrimidin-5-yl)-4-morpholinothieno[3,2-d]pyrimidin-6-yl)methyl)(methyl)amino)-N-hydroxypyrimidine-5-carboxamide]",IC50,[1],< 100 nM
same,IC50,PI3Kα (p110α/p85α),< 100 nM
same,melting point,,> 300 °C
"CN(Cc1cc2nc(-c3ccccc3)nc(N3CCOCC3)c2s1)c1ncc(C(=O)NO)cn1 [Compound 129, N-hydroxy-2-(methyl((4-morpholino-2-phenylthieno[3,2-d]pyrimidin-6-yl)methyl)amino)pyrimidine-5-carboxamide]",IC50,[1],< 100 nM
same,IC50,PI3Kα (p110α/p85α),> 10000 nM
same,melting point,,199 to 200 °C
"COc1cccc(-c2nc(N3CCOCC3)c3sc(CN(C)c4ncc(C(=O)NO)cn4)cc3n2)c1 [Compound 130, N-hydroxy-2-(((2-(3-methoxyphenyl)-4-morpholinothieno[3,2-d]pyrimidin-6-yl)methyl)(methyl)amino)pyrimidine-5-carboxamide]",IC50,[1],< 100 nM
same,IC50,PI3Kα (p110α/p85α),100 to 1000 nM
same,melting point,,179 to 181 °C
"COc1ccc(-c2nc(N3CCOCC3)c3sc(CN(C)c4ncc(C(=O)NO)cn4)cc3n2)cc1 [Compound 131, N-hydroxy-2-(((2-(4-methoxyphenyl)-4-morpholinothieno[3,2-d]pyrimidin-6-yl)methyl)(methyl)amino)pyrimidine-5-carboxamide]",IC50,[1],< 100 nM
same,IC50,PI3Kα (p110α/p85α),> 10000 nM
same,melting point,,247 °C (dec.)
"CN(Cc1cc2nc(-c3ccc(O)cc3)nc(N3CCOCC3)c2s1)c1ncc(C(=O)NO)cn1 [Compound 133, N-hydroxy-2-(((2-(4-hydroxyphenyl)-4-morpholinothieno[3,2-d]pyrimidin-6-yl)methyl)(methyl)amino)pyrimidine-5-carboxamide]",IC50,[1],< 100 nM
same,IC50,PI3Kα (p110α/p85α),100 to 1000 nM
same,melting point,,185 to 195 °C
"CN(Cc1cc2nc(-c3cccc(N)c3)nc(N3CCOCC3)c2s1)c1ncc(C(=O)NO)cn1 [Compound 134, 2-(((2-(3-aminophenyl)-4-morpholinothieno[3,2-d]pyrimidin-6-yl)methyl)(methyl)amino)-N-hydroxypyrimidine-5-carboxamide]",IC50,[1],< 100 nM
same,IC50,PI3Kα (p110α/p85α),100 to 1000 nM
same,melting point,,179 to 182 °C
